The source of these data is patent publication US12655142B2 (Merck Patent GmbH, priority 2019, dated 2026).

In assay [1] the target is T1, GIST430/654 cell line expressing mutated constitutively active cKIT receptor tyrosine kinase (Δ560-576 deletion and V654A point mutation) (Homo sapiens, UniProt P10721, DEL560-576/V654A).
T1 construct: endogenous in cells; host or cells: GIST430/654 cells
As to the kind of experiment: Cellular cKIT autophosphorylation (phospho-Y307-cKIT, Luminex bead assay) in GIST430/654 cells. In kind it is cell-based. As to conditions: compounds 45 min, read-out: GIST 430/654 IC50. As to the method:
Assay Principle for Cellular Testing of cKIT Mutant Inhibitors
The GIST430 cell line expressing constitutive active cKIT receptor tyrosine kinase (Δ560-576 deletion) and the Imatinib resistant GIST430/654 cell line expressing mutated constitutively active cKIT receptor tyrosine kinase (Δ560-576 deletion and V654A point mutation) were employed for assessing cellular potency of compounds. Cellular activity of mutant cKIT was determined by the degree of cKIT autophosphorylation at tyrosine 307 using a Luminex-based bead assay. GIST430 cells were plated with 22,000 cells per well of a 96-well plate in 100 μl medium (85% IMDM/15% FCS) and GIST430/654 cells were plated with 25,000 cells per well of a 96-well plate in 100 μl medium (85% IMDM/15% FCS supplemented with 100 nM Imatinib). At the following day compounds were added in a serial dilution for 45 min. Then, cells were lysed with 90 μl lysis buffer (20 mM Hepes pH 7.5, 200 mM NaCl, 1.5 mM MgCl2×6H2O, 0.4 mM EDTA, 1% Triton-X-100, 1% Phosphatase-Inhibitor II, 20 mM β-Glycerolphosphat, 0.1% Protease-Inhibitor Cocktail III, 0.01% Benzonase) and lysates were cleared by centrifugation through a 96-well filter plate (0.65 μm). Samples were incubated with Luminex-beads which were coupled with an anti-total cKIT antibody overnight at 4° C. under gentle agitation. For detection of phospho-Y307-cKIT a phosphospecific antibody and a species-specific PE-labeled secondary antibody were added. The amount of phospho-Y307-cKIT was determined in a Luminex 200 instrument measuring 100 events per well within 60 seconds.
Counts from samples treated with compounds were calculated as percent of control from solvent treated (0.3% DMSO) samples. Dose-response curves were fitted and IC50 values were determined using Genedata Screener software.

The next assay has as its target T2, c-Kit(V654A) (Homo sapiens, UniProt P10721, V654A).
T2 construct: recombinant human c-Kit, amino acids 544-end containing the V654A mutation; GST (N)
In words: c-Kit(V654A) assay (33P-ATP filter binding kinase assay). In kind it is biochemical. Particulars: recombinant human c-Kit aa 544-end V654A, ATP 200 μM. As to the method:
c-Kit(V654A) (N-terminal GST-tagged, recombinant human c-Kit, amino acids 544-end containing the V654A mutation) is incubated with 8 mM MOPS pH 7.0, 0.2 mM EDTA, 250 μM GGMEDIYEFMGGKKK, 10 mM MgAcetate and [gamma-33P-ATP] (specific activity approx. 500 cpm/pmol, concentration 200 μM). The reaction is initiated by the addition of the MgATP mix. After incubation for 40 minutes at room temperature, the reaction is stopped by the addition of 3% phosphoric acid solution. 10 μL of the reaction is then spotted onto a P30 filtermat and washed three times for 5 minutes in 75 mM phosphoric acid and once in methanol prior to drying and scintillation counting.

T2 sequence (P10721 544-976 V654A): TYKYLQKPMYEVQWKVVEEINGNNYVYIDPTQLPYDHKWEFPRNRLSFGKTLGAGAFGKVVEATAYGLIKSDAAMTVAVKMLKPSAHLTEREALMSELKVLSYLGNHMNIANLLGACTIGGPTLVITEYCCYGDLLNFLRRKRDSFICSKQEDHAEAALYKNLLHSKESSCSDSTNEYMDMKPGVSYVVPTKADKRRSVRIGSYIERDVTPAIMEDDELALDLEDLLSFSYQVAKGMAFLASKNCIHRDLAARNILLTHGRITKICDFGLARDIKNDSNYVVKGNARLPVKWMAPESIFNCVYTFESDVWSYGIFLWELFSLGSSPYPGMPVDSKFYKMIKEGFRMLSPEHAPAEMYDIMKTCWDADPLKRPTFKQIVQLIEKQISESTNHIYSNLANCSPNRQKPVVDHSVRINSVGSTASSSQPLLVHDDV
T1 sequence (P10721 with tags, fused parts or gaps DEL560-576/V654A): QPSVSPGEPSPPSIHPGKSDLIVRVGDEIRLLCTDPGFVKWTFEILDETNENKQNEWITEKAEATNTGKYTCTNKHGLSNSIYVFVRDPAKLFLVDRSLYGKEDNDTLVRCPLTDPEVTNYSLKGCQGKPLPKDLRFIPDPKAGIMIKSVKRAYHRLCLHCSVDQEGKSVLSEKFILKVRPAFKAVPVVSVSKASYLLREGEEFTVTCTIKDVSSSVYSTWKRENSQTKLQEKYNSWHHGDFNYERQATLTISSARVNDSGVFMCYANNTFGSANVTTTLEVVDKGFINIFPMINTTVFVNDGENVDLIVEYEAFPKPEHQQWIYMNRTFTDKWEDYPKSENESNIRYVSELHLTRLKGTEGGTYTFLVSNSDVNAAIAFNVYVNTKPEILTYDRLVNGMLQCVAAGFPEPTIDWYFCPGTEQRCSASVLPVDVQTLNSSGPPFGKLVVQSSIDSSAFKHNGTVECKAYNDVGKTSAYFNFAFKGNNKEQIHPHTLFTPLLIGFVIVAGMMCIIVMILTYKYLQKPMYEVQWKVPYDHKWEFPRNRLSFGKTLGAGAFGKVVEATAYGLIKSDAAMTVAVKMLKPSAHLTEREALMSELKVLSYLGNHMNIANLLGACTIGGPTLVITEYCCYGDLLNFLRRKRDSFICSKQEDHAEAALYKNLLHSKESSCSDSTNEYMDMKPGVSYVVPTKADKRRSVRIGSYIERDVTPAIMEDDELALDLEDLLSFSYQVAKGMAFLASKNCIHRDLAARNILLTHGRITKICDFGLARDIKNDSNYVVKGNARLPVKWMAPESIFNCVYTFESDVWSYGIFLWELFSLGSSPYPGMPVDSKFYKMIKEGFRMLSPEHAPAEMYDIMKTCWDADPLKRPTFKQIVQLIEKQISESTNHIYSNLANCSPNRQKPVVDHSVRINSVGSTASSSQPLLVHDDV

Take `COc1ccn2c(-c3cc(NCc4ccc(-c5ccccc5)cc4)ncn3)cnc2c1` [A3, N-({[1,1′-biphenyl]-4-yl}methyl)-6-{7-methoxyimidazo[1,2-a]pyridin-3-yl}pyrimidin-4-amine]: the IC50 amounted to 2600 nM in assay [1] and 5.5 nM at c-Kit(V654A).
Taken in the same sequence, the figures for `Cn1cc(-c2ccc(CNc3cc(-c4cnc5cc(C(F)(F)F)ccn45)ncn3)cc2)cn1` [A10, N-{[4-(1-methyl-1H-pyrazol-4-yl)phenyl]methyl}-6-[7-(trifluoromethyl)imidazo[1,2-a]pyridin-3-yl]pyrimidin-4-amine] were 1000 nM and 13 nM.
Regarding `COc1ccn2c(-c3cc(NCc4ccc(C(=O)N(C)C)cc4)ncn3)cnc2c1` [A13, 4-{[(6-{7-methoxyimidazo[1,2-a]pyridin-3-yl}pyrimidin-4-yl)amino]methyl}-N,N-dimethylbenzamide], the IC50 turned out to be 2300 nM in assay [1] and 100 nM at c-Kit(V654A).
For the molecule `Cn1ccc(-c2ccc(CNc3cc(-c4cnc5ccccn45)ncn3)cc2)n1` [A14, (6-Imidazo[1,2-a]24yridine-3-yl-pyrimidin-4-yl)-[4-(1-methyl-1H-pyrazol-3-yl)-benzyl]-amine], the IC50 in assay [1] amounted to 200 nM; at c-Kit(V654A), 5.5 nM.
Taken in the same sequence, the figures for `COc1ccn2c(-c3cc(NCc4ccc(-c5cn(C)cn5)cc4)ncn3)cnc2c1` [A20, [6-(7-methoxy-imidazo[1,2-a]pyridin-3-yl)-pyrimidin-4-yl]-[4-(1-methyl-1H-imidazol-4-yl)-benzyl]-amine] were 650 nM and 55 nM.
Consider `COc1ccn2c(-c3cc(NCc4ccc(-c5cnn(CCN6CCOCC6)c5)cc4)ncn3)cnc2c1` [A22, [6-(7-methoxy-imidazo[1,2-a]pyridin-3-yl)-pyrimidin-4-yl]-{4-[1-(2-morpholin-4-yl-ethyl)-1H-pyrazol-4-yl]-benzyl}-amine], for which the IC50 on c-Kit(V654A) turned out to be 110 nM.
On to `CCn1cc(-c2ccc(CNc3cc(-c4cnc5cc(OC)ccn45)ncn3)cc2)cn1` [A23, [4-(1-ethyl-1H-pyrazol-4-yl)-benzyl]-[6-(7-methoxy-imidazo[1,2-a]pyridin-3-yl)-pyrimidin-4-yl]-amine], for which the figures for the IC50 (in assay [1]; at c-Kit(V654A)) were 66 nM and 6.2 nM, respectively.
For `COc1ccn2c(-c3cc(NCc4ccc(-c5cnn(CCN6CCCC6)c5)cc4)ncn3)cnc2c1` [A24, [6-(7-methoxy-imidazo[1,2-a]pyridin-3-yl)-pyrimidin-4-yl]-{4-[1-(2-pyrrolidin-1-yl-ethyl)-1H-pyrazol-4-yl]-benzyl}-amine], on c-Kit(V654A), the IC50 was 160 nM.
As for `COc1ccn2c(-c3cc(NCc4ccc(-c5cn(C)nc5C)cc4)ncn3)cnc2c1` [A25, [4-(1,3-dimethyl-1H-pyrazol-4-yl)-benzyl]-[6-(7-methoxy-imidazo[1,2-a]pyridin-3-yl)-pyrimidin-4-yl]-amine], the IC50 came to 210 nM in assay [1] and 26 nM on c-Kit(V654A).
As to `COc1ccn2c(-c3cc(NCc4ccc(-n5cnc6ccccc65)cc4)ncn3)cnc2c1` [A27, N-{[4-(1H-1,3-benzodiazol-1-yl)phenyl]methyl}-6-{7-methoxyimidazo[1,2-a]pyridin-3-yl}pyrimidin-4-amine], the IC50 at c-Kit(V654A) stood at 63 nM.
With `COc1ccn2c(-c3cc(NCc4cccc(-c5cnn(C)c5)c4)ncn3)cnc2c1` [A28, [6-(7-methoxy-imidazo[1,2-a]pyridin-3-yl)-pyrimidin-4-yl]-[3-(1-methyl-1H-pyrazol-4-yl)-benzyl]-amine], the IC50 in assay [1] came out at 1400 nM; on c-Kit(V654A), 35 nM.
As for `COc1ccn2c(-c3cc(NCc4ccc(-c5cnc(C)nc5N)cc4)ncn3)cnc2c1` [A43, 5-(4-{[(6-{7-methoxyimidazo[1,2-a]pyridin-3-yl}pyrimidin-4-yl)amino]methyl}phenyl)-2-methylpyrimidin-4-amine], the IC50 on c-Kit(V654A) stood at 260 nM.
Still for that read-out and setting: the same measure for `COc1ccn2c(-c3cc(NCc4ccc(-c5cnn(C)n5)nc4)ncn3)cnc2c1` [A45, [6-(7-methoxy-imidazo[1,2-a]pyridin-3-yl)-pyrimidin-4-yl]-[6-(2-methyl-2H-[1,2,3]triazol-4-yl)-pyridin-3-ylmethyl]-amine]: 130 nM; for `COCC(COC)Oc1ccn2c(-c3cc(NCc4ccc(-c5cnn(C)c5)cc4)ncn3)cnc2c1` [A54, {6-[7-(2-methoxy-1-methoxymethyl-ethoxy)-imidazo[1,2-a]pyridin-3-yl]-pyrimidin-4-yl}-[4-(1-methyl-1H-pyrazol-4-yl)-benzyl]-amine]: 120 nM.
Same read-out and setting: next, `Cn1cc(-c2ccc(CNc3cc(-c4cnc5cc(OCc6nccn6C)ccn45)ncn3)cc2)nn1` [A110, {6-[7-(1-methyl-1H-imidazol-2-ylmethoxy)-imidazo[1,2-a]pyridin-3-yl]-pyrimidin-4-yl}-[4-(1-methyl-1H-[1,2,3]triazol-4-yl)-benzyl]-amine]: 110 nM; `COc1ccn2c(-c3cc(NCc4ccc(-c5cnn(CC6CNC6)c5)cc4)ncn3)cnc2c1` [A159, N-[(4-{1-[(azetidin-3-yl)methyl]-1H-pyrazol-4-yl}phenyl)methyl]-6-{7-methoxyimidazo[1,2-a]pyridin-3-yl}pyrimidin-4-amine]: 88 nM.
Same read-out and setting: the same measure for `COc1ccn2c(-c3cc(OC(C)c4ccc(-c5cnn(C)c5)cc4)ncn3)cnc2c1` (stereo not drawn) [A171, 7-methoxy-3-(6-{1-[4-(1-methyl-1H-pyrazol-4-yl)-phenyl]-ethoxy}-pyrimidin-4-yl)-imidazo[1,2-a]pyridine]: 58 nM; for `COc1ccn2c(-c3cc(NCc4ccc(-c5cnc(CO)n5C)cc4)ncn3)cnc2c1` [A174, [5-(4-{[6-(7-Methoxy-imidazo[1,2-a]pyridin-3-yl)-pyrimidin-4-ylamino]-methyl}-phenyl)-1-methyl-1H-imidazol-2-yl]-methanol]: 260 nM.
Consider `Cn1cc(-c2ccc(CNc3cc(-c4cnc5cc(OCCN6CCC67COC7)ccn45)ncn3)cc2)cn1` [A207, [4-(1-methyl-1H-pyrazol-4-yl)-benzyl]-(6-{7-[2-(6-oxa-1-aza-spiro[3.3]hept-1-yl)-ethoxy]-imidazo[1,2-a]pyridin-3-yl}-pyrimidin-4-yl)-amine], for which the IC50 at c-Kit(V654A) turned out to be 8.7 nM.
Regarding `Cn1cc(-c2ccc(CNc3cc(-c4cnc5cc(OCCCN6CC(F)C6)ccn45)ncn3)cc2)cn1` [A240, (6-{7-[3-(3-fluoro-azetidin-1-yl)-propoxy]-imidazo[1,2-a]pyridin-3-yl}-pyrimidin-4-yl)-[4-(1-methyl-1H-pyrazol-4-yl)-benzyl]-amine], the IC50 at c-Kit(V654A) worked out at 7.3 nM.
Still for that read-out and setting: next, `Cn1cc(-c2ccc(CNc3cc(-c4cnc5cc(OCCCN6CC[S+]([O-])CC6)ccn45)ncn3)cc2)cn1` [A241, [4-(1-methyl-1H-pyrazol-4-yl)-benzyl]-(6-{7-[3-(1-oxo-1|4-thiomorpholin-4-yl)-propoxy]-imidazo[1,2-a]pyridin-3-yl}-pyrimidin-4-yl)-amine]: 6.5 nM; `Cn1ncc(-c2ccc(CNc3cc(-c4cnc5cc(N6CCN(C7COC7)CC6)ccn45)ncn3)cc2)n1` [A244, [4-(2-methyl-2H-[1,2,3]triazol-4-yl)-benzyl]-{6-[7-(4-oxetan-3-yl-piperazin-1-yl)-imidazo[1,2-a]pyridin-3-yl]-pyrimidin-4-yl}-amine]: 21 nM.
The same measure, in the same setting: the same measure for `Cn1ncc(-c2ccc(CNc3cc(-c4cnc5cc(OCCCN6CCN(C7CC7)CC6)ccn45)ncn3)cc2)n1` [A253, (6-{7-[3-(4-cyclopropyl-piperazin-1-yl)-propoxy]-imidazo[1,2-a]pyridin-3-yl}-pyrimidin-4-yl)-[4-(2-methyl-2H-[1,2,3]triazol-4-yl)-benzyl]-amine]: 6.5 nM; for `Cn1cc(-c2ccc(CNc3cc(-c4cnc5cc(OCC6CN(CC(F)(F)F)C6)ccn45)ncn3)cc2)cn1` [A254, N-{[4-(1-methyl-1H-pyrazol-4-yl)phenyl]methyl}-6-(7-{[1-(2,2,2-trifluoroethyl)azetidin-3-yl]methoxy}imidazo[1,2-a]pyridin-3-yl)pyrimidin-4-amine]: 24 nM.
For the molecule `CN1CC(F)(COc2ccn3c(-c4cc(NCc5ccc(-c6cnn(C)c6)cc5)ncn4)cnc3c2)C1` [A256, 6-{7-[(3-fluoro-1-methylazetidin-3-yl)methoxy]imidazo[1,2-a]pyridin-3-yl}-N-{[4-(1-methyl-1H-pyrazol-4-yl)phenyl]methyl}pyrimidin-4-amine], at c-Kit(V654A), the IC50 amounted to 12 nM.
